Blank lines part the entries; values can stand above or below the compound they belong to.
Columns and labels:
[1] = molecular target: T1, Thymidine kinase, cytosolic (Rattus norvegicus, UniProt P27158); assay: Competitive inhibition against rat cytoplasmic Thymidine kinase
T1 sequence (P27158 whole entry): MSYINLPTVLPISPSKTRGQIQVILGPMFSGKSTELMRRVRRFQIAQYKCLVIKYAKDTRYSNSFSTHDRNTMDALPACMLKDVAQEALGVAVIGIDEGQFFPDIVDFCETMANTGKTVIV

[2] = molecular target: T2, Thymidine kinase, cytosolic (Rattus norvegicus) (UniProt P27158); assay: Affinity towards cytoplasmic Thymidine kinase relative ot TdR.
T2 sequence (whole entry): T1 sequence (P27158 whole entry)

[3] = molecular target: T3, Thymidine kinase 2 (Rattus norvegicus) (UniProt D3ZGQ2); assay: Ability to inhibit rat mitochondrial thymidine kinase; parameters: concentration or dose not given beside the values; conditions: concentration not given here
T3 sequence (whole entry): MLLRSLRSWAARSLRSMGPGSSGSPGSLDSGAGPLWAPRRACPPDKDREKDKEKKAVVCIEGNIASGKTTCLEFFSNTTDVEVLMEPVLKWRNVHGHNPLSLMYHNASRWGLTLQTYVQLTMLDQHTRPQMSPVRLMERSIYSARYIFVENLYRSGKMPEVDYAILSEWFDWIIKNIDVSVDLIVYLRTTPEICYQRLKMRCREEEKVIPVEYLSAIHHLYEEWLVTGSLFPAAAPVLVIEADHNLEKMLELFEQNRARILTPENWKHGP

[4] = molecular target: T2, Thymidine kinase, cytosolic (Rattus norvegicus); assay: Ability to inhibit rat cytoplasmic Thymidine kinase; parameters: concentration or dose not given beside the values; conditions: concentration not given here
Rattus norvegicus = organism: Rattus norvegicus; assay: Differential affinity is the ratio between M-TK and C-TK
[5] = molecular target: T2, Thymidine kinase, cytosolic (Rattus norvegicus); assay: (§1) Competitive inhibition against rat cytoplasmic thymidine kinase; parameters: concentration or dose not given beside the values; conditions: concentration not given here
Thymidine kinase 2 = molecular target: T4, Thymidine kinase 2 (Rattus norvegicus, UniProt D3ZGQ2); assay: Competitive inhibition against rat mitochondrial thymidine kinase
T4 sequence (D3ZGQ2 whole entry): T3 sequence (whole entry)

[6] = molecular target: T3, Thymidine kinase 2 (Rattus norvegicus); assay: Affinity towards mitochondrial thymidine kinase relative to TdR.
[7] = molecular target: T1, Thymidine kinase, cytosolic; assay: Affinity towards cytoplasmic Thymidine kinase relative ot TdR; expressed as KM (TdR)/Ki
[8] = molecular target: T1, Thymidine kinase, cytosolic; assay: as §1
[9] = molecular target: T2, Thymidine kinase, cytosolic (Rattus norvegicus); assay: Affinity towards cytoplasmic thymidine kinase relative ot TdR; expressed as KM (TdR)/Ki

Compound: Cc1cn([C@H]2C[C@H](O)[C@@H](CO)O2)c(=O)n(C)c1=O
Differential affinity (Rattus norvegicus): < 0.022

Compound: CCC(=O)O[C@H]1C[C@H](n2ccc(N)nc2=O)O[C@@H]1CO
inhibition [5]: 8% | inhibition [3]: 19%

Compound: CCNc1ccn([C@H]2C[C@H](O)[C@@H](CO)O2)c(=O)n1
inhibition [3]: 5% | inhibition [4]: 7%

Compound: Nc1ccn([C@@H]2O[C@H](CO)[C@@H](O)[C@H]2O)c(=O)n1
inhibition [3]: 13% | inhibition [4]: 1%

Compound: Cc1cn([C@H]2C=C[C@@H](CO)O2)c(=O)[nH]c1=O [STAVUDINE]
Ki (Thymidine kinase 2): 3250 µM | Differential affinity (Rattus norvegicus): 2.7

Compound: Cn1c(=O)ccn([C@H]2C[C@H](O)[C@@H](CO)O2)c1=O
inhibition [5]: 62% | inhibition [3]: 4%

Compound: Cc1cn(C2CC(O)C(CSCCCC(=O)O)O2)c(=O)[nH]c1=O (stereo unspecified)
Ki [7]: 3600 µM | inhibition [3]: 36% | inhibition [4]: 48%

Compound: CCCCNCC1OC(n2cc(C)c(=O)[nH]c2=O)CC1O (stereo unspecified)
inhibition [3]: 53% | inhibition [4]: 95%

Compound: CCOC1N([C@H]2C[C@H](O)[C@@H](CO)O2)C(=O)NC(=O)C1(C)Br (stereo in doubt; 4c) [listing 1 of 2 here]
Ki (Thymidine kinase 2): 11 µM | Ki [1]: 3.9 µM

Compound: Cc1cn([C@H]2C[C@H](OCc3ccccc3)[C@@H](CO)O2)c(=O)[nH]c1=O
Ki [8]: 12 µM | Ki (Thymidine kinase 2): 8 µM | Relative affinity [6]: 1 | Differential affinity (Rattus norvegicus): 7.5 | Relative affinity [2]: 0.133

Compound: CC1CN([C@H]2C[C@H](O)[C@@H](CO)O2)C(=O)NC1=O (stereo partly specified)
Ki (Thymidine kinase 2): 77 µM | Relative affinity [6]: 0.1 | inhibition [5]: 53% | inhibition [3]: 83%

Compound: CCCCCn1c(=O)c(C)cn([C@H]2C[C@H](O)[C@@H](CO)O2)c1=O
Ki (Thymidine kinase 2): 1100 µM | Ki [1]: 36 µM | Relative affinity [6]: 0.0073 | Differential affinity (Rattus norvegicus): 0.17 | Relative affinity [2]: 0.044

Compound: CCOC1N([C@H]2C[C@H](O)[C@@H](CO)O2)C(=O)NC(=O)C1(C)Br (stereo in doubt; 4c) [listing 2 of 2 here]
Relative affinity [6]: 0.73 | Differential affinity (Rattus norvegicus): 1.8 | Relative affinity [2]: 0.41

Compound: Nc1nc(=O)n([C@H]2C[C@H](O)[C@@H](CO)O2)cc1I [IBACITABINE]
Ki [1]: 11400 µM

Compound: CCOC1N([C@H]2C[C@H](O)[C@@H](CO)O2)C(=O)NC(=O)C1(C)Br (stereo in doubt; 4b) [listing 1 of 2 here]
Relative affinity [6]: 0.73 | Differential affinity (Rattus norvegicus): 0.91 | Relative affinity [2]: 0.8

Compound: CCOC1N([C@H]2C[C@H](O)[C@@H](CO)O2)C(=O)NC(=O)C1(C)Br (stereo in doubt; 4b) [listing 2 of 2 here]
Ki [1]: 2 µM

Compound: Cc1cn([C@H]2C[C@H](O)[C@@H](CO)O2)c(=O)nc1N
Ki [1]: 2100 µM | Relative affinity [6]: 0.006 | Differential affinity (Rattus norvegicus): 7.9 | Relative affinity [2]: 0.00076

Compound: O=c1ccn([C@@H]2O[C@H](CO)[C@@H](O)[C@H]2O)c(=O)[nH]1
inhibition [3]: 4% | inhibition [4]: 4%

Compound: Nc1ccn([C@H]2C[C@H](O)[C@@H](CO)O2)c(=O)n1 [DOXECITINE]
Ki (Thymidine kinase 2): 320 µM | Relative affinity [6]: 0.025 | inhibition [3]: 58% | inhibition [4]: 7%

Compound: CCCCCCNCC1OC(n2cc(C)c(=O)[nH]c2=O)CC1O (stereo unspecified)
Ki (Thymidine kinase 2): 960 µM | Ki [1]: 35 µM | Relative affinity [6]: 0.0083 | Differential affinity (Rattus norvegicus): 0.18 | Relative affinity [2]: 0.046

Compound: Cc1cn([C@H]2C[C@H](O)[C@@H](CO)O2)c(=O)n(Cc2ccccc2)c1=O
Ki [8]: 320 µM | Relative affinity [6]: > 0.002 | Differential affinity (Rattus norvegicus): 0.04 | Relative affinity [2]: 0.05 | inhibition [3]: 10%

Compound: CCNCC1OC(n2cc(C)c(=O)[nH]c2=O)CC1O (stereo unspecified)
Ki (Thymidine kinase 2): 1440 µM | Ki [1]: 40 µM | Relative affinity [6]: 0.0056 | Differential affinity (Rattus norvegicus): 0.14 | Relative affinity [2]: 0.04

Compound: Cc1cn([C@H]2CC[C@@H](CO)O2)c(=O)[nH]c1=O
Ki (Thymidine kinase 2): 880 µM | Ki [1]: 400 µM | Relative affinity [6]: 0.0091 | Differential affinity (Rattus norvegicus): 2.3 | Relative affinity [2]: 0.004

Compound: CO[C@H]1C[C@H](n2ccc(N)nc2=O)O[C@@H]1CO
inhibition [5]: 3% | inhibition [3]: 24%

Compound: CC[S+]([O-])CC1OC(n2cc(C)c(=O)[nH]c2=O)CC1O (stereo unspecified)
inhibition [5]: 4% | inhibition [3]: 7%

Now from value to compound:

Ki [1]: 820 µM | Relative affinity [2]: 0.002 | inhibition [3]: 22% | inhibition [4]: 49%
Compound: Cc1cn(C2CC(O)C(CSCCO)O2)c(=O)[nH]c1=O (stereo unspecified)

inhibition [3]: 3% | inhibition [4]: 30%
Compound: NCc1cn([C@H]2C[C@H](O)[C@@H](CO)O2)c(=O)[nH]c1=O

inhibition [3]: 74% | inhibition [4]: 90%
Compound: O=c1ccn([C@H]2C[C@H](O)[C@@H](CO)O2)c(=O)[nH]1

inhibition [3]: 22% | inhibition [4]: 11%
Compound: CCSCC1OC(n2cc(C)c(=O)[nH]c2=O)CC1O (stereo unspecified)

Ki (Thymidine kinase 2): 62 µM | Ki [1]: 24 µM | Relative affinity [6]: 0.13 | Differential affinity (Rattus norvegicus): 1.9 | Relative affinity [2]: 0.067
Compound: CCSC1CC(n2cc(C)c(=O)[nH]c2=O)OC1CO (stereo unspecified)

inhibition [3]: 25% | inhibition [4]: 40%
Compound: Cc1cn(C2CC(O)C(CSCCC(=O)O)O2)c(=O)[nH]c1=O (stereo unspecified)

Differential affinity (Rattus norvegicus): < 4.8
Compound: CC(=O)NC1CC(n2cc(C)c(=O)[nH]c2=O)OC1CO (stereo unspecified)

Ki (Thymidine kinase 2): 72 µM | Ki [1]: 370 µM | Relative affinity [6]: 0.11 | Differential affinity (Rattus norvegicus): 26 | Relative affinity [2]: 0.0043
Compound: Nc1cn([C@H]2C[C@H](O)[C@@H](CO)O2)c(=O)[nH]c1=O

inhibition [3]: 19% | inhibition [4]: 20%
Compound: CC(=O)NCC1OC(n2cc(C)c(=O)[nH]c2=O)CC1O (stereo unspecified)

Ki [1]: 15500 µM
Compound: C/C=C/c1cn([C@H]2C[C@H](O)[C@@H](CO)O2)c(=O)[nH]c1=O

Ki [8]: 36 µM | Relative affinity [9]: 0.044 | Relative affinity [6]: 0.14 | Differential affinity (Rattus norvegicus): 3.2
Compound: CCO[C@H]1C[C@H](n2cc(C)c(=O)[nH]c2=O)O[C@@H]1CO

Ki (Thymidine kinase 2): 4600 µM | Ki [1]: 2.4 µM | Relative affinity [6]: 0.0017 | Differential affinity (Rattus norvegicus): 0.0025 | Relative affinity [2]: 0.67
Compound: Cc1cn([C@H]2C[C@H](O)[C@@H](CN)O2)c(=O)[nH]c1=O

Ki (Thymidine kinase 2): 2600 µM | Ki [1]: 380 µM | Relative affinity [6]: 0.0031 | Differential affinity (Rattus norvegicus): 0.74 | Relative affinity [2]: 0.0042
Compound: Cc1cn([C@H]2C[C@H](N)[C@@H](CO)O2)c(=O)[nH]c1=O [3-AMINO- 3-DEOXYTHYMIDINE]

Ki (Thymidine kinase 2): 250 µM | Ki [1]: 50 µM | Relative affinity [6]: 0.032 | Differential affinity (Rattus norvegicus): 1 | Relative affinity [2]: 0.032
Compound: CSc1cn([C@H]2C[C@H](O)[C@@H](CO)O2)c(=O)[nH]c1=O

inhibition [3]: 11% | inhibition [4]: 0%
Compound: CC(=O)Nc1cn([C@H]2C[C@H](O)[C@@H](CO)O2)c(=O)[nH]c1=O

Source: ChEMBL document CHEMBL1122068, “Species- or isozyme-specific enzyme inhibitors. 5. Differential effects of thymidine substituents on affinity for rat thymidine kinase isozymes” (J Med Chem, 1982)
